# Literature values, collected in patent publication US12527793B2, “Pharmaceutical compositions” (Shenzhen Pharmacin Co., Ltd., priority 2020, dated 2026).
# Settings: background statement
row,Compound,Solubility in water
1,"Cc1cn(-c2cc(NC(=O)c3ccc(C)c(Nc4nccc(-c5cccnc5)n4)c3)cc(C(F)(F)F)c2)cn1 [Nilotinib, 4-methyl-N-[3-(4-methyl-1H-imidazol-1-yl)-5-(trifluoromethyl)phenyl]-3-{[4-(pyridin-3-yl)pyrimidin-2-yl]amino}benzamide]",practically insoluble

# Settings: source footnote 1: Pallicer et al., ADMET & DMPK 2(2) (2014) 107-114
row,Compound,Experimental log P
1,O=c1cc(-c2ccccc2)oc2cc(O)cc(O)c12 [Chrysin],3.52^1
2,CCN(CC)CCN1C(=O)CN=C(c2ccccc2F)c2cc(Cl)ccc21 [Flurazepam],3.94^1
3,CCCCN1CCCCC1C(=O)Nc1c(C)cccc1C (stereo not shown) [Bupivacaine],3.41^1
4,O=c1n(CCCN2CCN(c3cccc(Cl)c3)CC2)nc2ccccn12 [Trazodone],2.82^1
5,OCCOCCN1CCN(C2=Nc3ccccc3Sc3ccccc32)CC1 [Quetiapine],3.13^1
6,COc1ccc([C@@H]2Sc3ccccc3N(CCN(C)C)C(=O)[C@@H]2OC(C)=O)cc1 [Diltiazem],2.84^1
7,CN(C)CCCN1c2ccccc2Sc2ccc(Cl)cc21 [Chlorpromazine],5.27^1
8,CN(C)CCC(c1ccc(Cl)cc1)c1ccccn1 (stereo not shown) [Chlorphenamine],3.17^1
9,CC(C)/N=c1\cc2n(-c3ccc(Cl)cc3)c3ccccc3nc-2cc1Nc1ccc(Cl)cc1 [Clofazimine],6.3^1
10,C=C[C@H]1CN2CC[C@H]1C[C@H]2[C@H](O)c1ccnc2ccccc12 [Cinchonidine],2.6^1
11,CC(C(=O)O)c1ccc(-c2ccccc2)c(F)c1 (stereo not shown) [Flurbiprofen],3.84^1
12,Cc1ccc(-c2cc(C(F)(F)F)nn2-c2ccc(S(N)(=O)=O)cc2)cc1 [Celecoxib],3.91^1
13,O=C1C[C@@H](c2ccc(O)cc2)Oc2cc(O)cc(O)c21 [Naringenin],2.52^1
14,O=C(CCCN1CCC(O)(c2ccc(Cl)cc2)CC1)c1ccc(F)cc1 [Haloperidol],3.82^1
15,COc1ccc(C(CN(C)C)C2(O)CCCCC2)cc1 (stereo not shown) [Venlafaxine],3.05^1
16,COc1ccc([C@@H]2CC(=O)c3c(O)cc(O)cc3O2)cc1O [Hesperetin],2.60^1

row,Compound,Experimental log P
1,O=c1cc(-c2ccc(O)cc2)oc2cc(O)cc(O)c12 [Apigenin],3.02^1
2,COc1cccc(C2(O)CCCCC2CN(C)C)c1 (stereo not shown) [Tramadol],2.7^1
3,CN(CCOc1ccc(CC2SC(=O)NC2=O)cc1)c1ccccn1 (stereo not shown) [Rosiglitazone],3.1^1
4,CN[C@H]1CC[C@@H](c2ccc(Cl)c(Cl)c2)c2ccccc21 [Sertraline],5.17^1
5,O=C(O)CCC(=O)c1ccc(-c2ccccc2)cc1 [Fenbufen],3.2^1
6,COC(=O)[C@H](c1ccccc1Cl)N1CCc2sccc2C1 [Clopidogrel],4.52^1
7,CN(C)CCC(c1ccc(Br)cc1)c1ccccn1 (stereo not shown) [Brompheniramine],2.88^1
8,COc1ccc2c(c1)c(CC(=O)O)c(C)n2C(=O)c1ccc(Cl)cc1 [Indometacin],4.1^1
9,CNCCC(Oc1ccc(C(F)(F)F)cc1)c1ccccc1 (stereo not shown) [Fluoxetine],4.42^1
10,CCC1=C(C)CN(C(=O)NCCc2ccc(S(=O)(=O)NC(=O)N[C@H]3CC[C@H](C)CC3)cc2)C1=O [Glimepiride],3.97^1
11,O=C(O)c1ccccc1Nc1cccc(C(F)(F)F)c1 [Flufenamic acid],5.19^1
12,CC(C)(Oc1ccc(Cl)cc1)C(=O)O [Clofibric acid],2.57^1
13,C=C[C@H]1C[N@@]2CC[C@H]1C[C@H]2[C@H](O)c1ccnc2ccc(OC)cc12 [Quinine],2.64^1
14,CNCC[C@H](Oc1cccc2ccccc12)c1cccs1 [Duloxetine],4.54^1
15,CCc1cc2c(s1)N(C)C(=O)CN=C2c1ccccc1Cl [Clotiazepam],3.49^1

# Same assay, conditions: source footnote 5: experimental values listed on www.drugbank.ca
row,Compound,Experimental log P
1,C[C@@H](Oc1cc(-c2cnn(C3CCNCC3)c2)cnc1N)c1c(Cl)ccc(F)c1Cl [crizotinib],1.83 ^5
2,CS(=O)(=O)CCNCc1ccc(-c2ccc3ncnc(Nc4ccc(OCc5cccc(F)c5)c(Cl)c4)c3c2)o1 [lapatinib],5.4 ^5
3,C=CC(=O)N1CCC[C@@H](n2nc(-c3ccc(Oc4ccccc4)cc3)c3c(N)ncnc32)C1 [Ibrutinib],3.97 ^5
4,Cc1nc(Nc2ncc(C(=O)Nc3c(C)cccc3Cl)s2)cc(N2CCN(CCO)CC2)n1 [dasatinib],1.8 ^5
5,CNC(=O)c1cc(Oc2ccc(NC(=O)Nc3ccc(Cl)c(C(F)(F)F)c3)cc2)ccn1 [sorafenib],3.8 ^5
6,COC(=O)c1ccc2c(c1)NC(=O)/C2=C(\Nc1ccc(N(C)C(=O)CN2CCN(C)CC2)cc1)c1ccccc1 [nintedanib],3.0 ^5
7,CCCS(=O)(=O)Nc1ccc(F)c(C(=O)c2c[nH]c3ncc(-c4ccc(Cl)cc4)cc23)c1F [vemurafenib],5.1 ^5
8,CO[C@@H]1[C@H](N(C)C(=O)c2ccccc2)C[C@H]2O[C@]1(C)n1c3ccccc3c3c4c(c5c6ccccc6n2c5c31)C(=O)NC4 [midostaurin],5.89 ^5
